US12479820B2, “Pyridin-3-yl derivatives” (Idorsia Pharmaceuticals Ltd, priority 2019, dated 2025)
pIC50: −log10 of the molar value.

Target: T1, human LPA1 receptor (Homo sapiens, UniProt Q92633)
T1 construct: TEV protease site; Gal4-VP16 transcription factor; host or cells: Tango EDG2-bla U2OS cells
Assay: Beta-arrestin recruitment assay to determine IC50 values for human LPAR1
Assay type: cell-based
Settings: Tango EDG2-bla U2OS cells, antagonist assay, LPA 18:1 500 nM final
In short: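 Tango EDG2-bla U2OS cells were preincubated 30 min at 37 °C with compound. They were then stimulated with 500 nM (final) LPA 18:1 for 16 h. β-Lactamase reporter read by LiveBLAzer FRET substrate (2 h) as the 460/530 nm ratio; IC50 from 4-parameter logistic fit.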

T1 sequence (Q92633 whole entry, the tested form may be a part): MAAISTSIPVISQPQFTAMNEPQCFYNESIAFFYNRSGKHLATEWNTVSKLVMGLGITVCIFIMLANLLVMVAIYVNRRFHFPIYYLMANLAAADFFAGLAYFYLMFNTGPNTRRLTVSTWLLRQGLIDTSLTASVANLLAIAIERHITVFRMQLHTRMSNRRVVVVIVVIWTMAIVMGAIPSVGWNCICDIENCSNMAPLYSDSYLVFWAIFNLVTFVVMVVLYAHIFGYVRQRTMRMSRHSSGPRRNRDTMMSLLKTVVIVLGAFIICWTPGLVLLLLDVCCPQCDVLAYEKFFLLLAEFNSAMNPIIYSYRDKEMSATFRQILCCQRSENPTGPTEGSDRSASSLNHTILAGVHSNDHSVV

| pIC50 | Compound |
| --- | --- |
| 7.21 | COc1cc(Cl)ncc1NC(=O)C1(c2ccccc2C(C)C)CN(C(=O)c2noc(O)n2)C1 [Example 19-6, N-(6-chloro-4-methoxypyridin-3-yl)-1-(5-hydroxy-1,2,4-oxadiazole-3-carbonyl)-3-(2-isopropylphenyl)azetidine-3-carboxamide] |
| 7.66 | COc1cc(Cl)ncc1NC(=O)C1(c2ccccc2C(C)C)CN(C2COC2)C1 [Example 18-9, N-(6-chloro-4-methoxypyridin-3-yl)-3-(2-isopropylphenyl)-1-(oxetan-3-yl)azetidine-3-carboxamide] |
| 6.37 | COc1cc(Cl)ncc1NC(=O)C1(c2ccccc2C(C)C)CN(C(=O)NCC(=O)O)C1 [Example 22-12, (3-((6-chloro-4-methoxypyridin-3-yl)carbamoyl)-3-(2-isopropylphenyl)azetidine-1-carbonyl)glycine] |
| 6.84 | COc1cc(Cl)ncc1NC(=O)C1(c2ccccc2C(C)C)CN(c2cnc(C(=O)O)cn2)C1 [Example 24-20, 5-(3-((6-chloro-4-methoxypyridin-3-yl)carbamoyl)-3-(2-isopropylphenyl)azetidin-1-yl)pyrazine-2-carboxylic acid] |
| 8.05 | COc1cc(Cl)ncc1NC(=O)C1(c2ccccc2C(C)C)CN(C(C)C)C1 [Example 18-1, N-(6-chloro-4-methoxypyridin-3-yl)-1-isopropyl-3-(2-isopropylphenyl)azetidine-3-carboxamide] |
| 7.14 | CCOc1cc(Cl)ncc1NC(=O)C1(c2ccccc2C(C)C)CN(C(=O)CC(C)(C)C(=O)OC)C1 [Example 19-21, methyl 4-(3-((6-chloro-4-ethoxypyridin-3-yl)carbamoyl)-3-(2-isopropylphenyl)azetidin-1-yl)-2,2-dimethyl-4-oxobutanoate] |
| 7.39 | CC(C)c1ccccc1C1(C(=O)Nc2cnc(Cl)cc2OC2CC2)CNC1 [Example 7, N-(6-chloro-4-cyclopropoxypyridin-3-yl)-3-(2-isopropylphenyl)azetidine-3-carboxamide] |
| 9.00 | CC(C)Oc1cc(Cl)ncc1NC(=O)C1(c2ccccc2C(C)C)CN(S(N)(=O)=O)C1 [Example 21-4, N-(6-chloro-4-isopropoxypyridin-3-yl)-3-(2-isopropylphenyl)-1-sulfamoylazetidine-3-carboxamide] |
| 6.84 | COc1cc(Cl)ncc1NC(=O)C1(c2ccccc2C(C)C)CN(CCc2nnn[nH]2)C1 [Example 18-4, 1-(2-(1H-tetrazol-5-yl)ethyl)-N-(6-chloro-4-methoxypyridin-3-yl)-3-(2-isopropylphenyl)azetidine-3-carboxamide] |
| 8.05 | COc1cc(Cl)ncc1NC(=O)C1(c2ccccc2C(C)C)CN(C(=O)NC(C)C)C1 [Example 22-4, N3-(6-chloro-4-methoxypyridin-3-yl)-N1-isopropyl-3-(2-isopropylphenyl)azetidine-1,3-dicarboxamide] |
| 8.30 | COc1cc(Cl)ncc1NC(=O)C1(c2ccccc2C(C)C)CCN(c2nc(C)ncc2F)CC1 [Example 24-18, N-(6-chloro-4-methoxypyridin-3-yl)-1-(5-fluoro-2-methylpyrimidin-4-yl)-4-(2-isopropylphenyl)piperidine-4-carboxamide] |
| 8.52 | COc1cc(Cl)ncc1NC(=O)C1(c2ccccc2C(C)C)CN(C2CCC2)C1 [Example 18-8, N-(6-chloro-4-methoxypyridin-3-yl)-1-cyclobutyl-3-(2-isopropylphenyl)azetidine-3-carboxamide] |
| 8.52 | COC[C@H](C)Oc1cc(Cl)ncc1NC(=O)C1(c2ccccc2C(C)C)CN(S(N)(=O)=O)C1 [Example 21-7, (S)-N-(6-chloro-4-((1-methoxypropan-2-yl)oxy)pyridin-3-yl)-3-(2-isopropylphenyl)-1-sulfamoylazetidine-3-carboxamide] |
| 8.30 | COc1cc(Cl)ncc1NC(=O)C1(c2ccccc2C(C)C)CN(C(=O)NC2CC2)C1 [Example 22-5, N3-(6-chloro-4-methoxypyridin-3-yl)-N1-cyclopropyl-3-(2-isopropylphenyl)azetidine-1,3-dicarboxamide] |
| 7.04 | COc1cc(Cl)ncc1NC(=O)C1(c2ccccc2C(C)C)CN(c2nc(C(=O)O)co2)C1 [Example 24-26, 2-(3-((6-chloro-4-methoxypyridin-3-yl)carbamoyl)-3-(2-isopropylphenyl)azetidin-1-yl)oxazole-4-carboxylic acid] |
| 7.72 | COc1cc(Cl)ncc1NC(=O)C1(c2ccccc2C(C)C)CN(C(C)=O)C1 [Example 19-2, 1-acetyl-N-(6-chloro-4-methoxypyridin-3-yl)-3-(2-isopropylphenyl)azetidine-3-carboxamide] |
| 7.66 | COC(=O)c1cnc(N2CC(C(=O)Nc3cnc(Cl)cc3OC)(c3ccccc3C(C)C)C2)nc1 [Example 24-22, methyl 2-(3-((6-chloro-4-methoxypyridin-3-yl)carbamoyl)-3-(2-isopropylphenyl)azetidin-1-yl)pyrimidine-5-carboxylate] |
| 7.80 | COc1cc(Cl)ncc1NC(=O)C1(c2nc(F)ccc2C(C)C)CN(S(N)(=O)=O)C1 [Example 21-17, N-(6-chloro-4-methoxypyridin-3-yl)-3-(6-fluoro-3-isopropylpyridin-2-yl)-1-sulfamoylazetidine-3-carboxamide] |
| 8.70 | COc1cc(Cl)ncc1NC(=O)C1(c2ccccc2C(C)C)CN(c2ncncc2F)C1 [Example 24-10, N-(6-chloro-4-methoxypyridin-3-yl)-1-(5-fluoropyrimidin-4-yl)-3-(2-isopropylphenyl)azetidine-3-carboxamide] |
| 7.92 | C=C(C)C(=O)OCCNC(=O)N1CC(C(=O)Nc2cnc(Cl)cc2OC)(c2ccccc2C(C)C)C1 [Example 22-8, 2-(3-((6-chloro-4-methoxypyridin-3-yl)carbamoyl)-3-(2-isopropylphenyl)azetidine-1-carboxamido)ethyl methacrylate] |
| 8.22 | COc1cc(Br)ncc1NC(=O)C1(c2ccccc2C(C)C)CNC1 [Example 4, N-(6-bromo-4-methoxypyridin-3-yl)-3-(2-isopropylphenyl)azetidine-3-carboxamide] |
| 8.22 | CC(C)c1ccccc1C1(C(=O)Nc2cnc(Cl)cc2OC2CC2)CN(S(N)(=O)=O)C1 [Example 21-5, N-(6-chloro-4-cyclopropoxypyridin-3-yl)-3-(2-isopropylphenyl)-1-sulfamoylazetidine-3-carboxamide] |
| 8.05 | COc1cc(Cl)ncc1NC(=O)C1(c2ccccc2C(C)C)CN(C=O)C1 [Example 19-3, N-(6-chloro-4-methoxypyridin-3-yl)-1-formyl-3-(2-isopropylphenyl)azetidine-3-carboxamide] |
| 6.95 | COc1cc(Cl)ncc1NC(=O)C1(c2ccccc2C(C)C)CN(C(=O)Cc2cc(O)n[nH]2)C1 [Example 19-13, N-(6-chloro-4-methoxypyridin-3-yl)-1-(2-(3-hydroxy-1H-pyrazol-5-yl)acetyl)-3-(2-isopropylphenyl)azetidine-3-carboxamide] |
| 7.44 | COc1cc(C)ncc1NC(=O)C1(c2ccccc2C(C)C)CNC1 [Example 11, 3-(2-isopropylphenyl)-N-(4-methoxy-6-methylpyridin-3-yl)azetidine-3-carboxamide] |
| 7.04 | COc1cc(Cl)ncc1NC(=O)C1(c2ccccc2C(C)C)CN(c2cc(C)nc(C)c2)C1 [Example 24-6, N-(6-chloro-4-methoxypyridin-3-yl)-1-(2,6-dimethylpyridin-4-yl)-3-(2-isopropylphenyl)azetidine-3-carboxamide] |
